Test results from ChEMBL document CHEMBL5385961, “In vitro and in vivo evaluation of novel chromeno[2,3-d]pyrimidinones as therapeutic agents for triple negative breast cancer” (RSC Med Chem, 2024).
The source made the active and inactive calls. The rule behind the calls is not given here.

Columns and labels:
[1] = Cytotoxicity against human MCF-10A cells assessed as inhibition of cell growth incubated for 72 hrs by SRB assay; format: toxicity, cell-based
[2] = tested on: MDA-MB-231; assay: Cytotoxicity against human MDA-MB-231 cells assessed as cell viability at 30 uM incubated for 72 hrs by SRB assay relative to control; format: functional; settings: read-out: Activity
[3] = tested on: Hs-578T; assay: Cytotoxicity against human Hs-578T cells assessed as cell viability at 30 uM incubated for 72 hrs by SRB assay relative to control; format: functional; settings: read-out: Activity
[4] = tested on: Hs-578T; assay: Cytotoxicity against human Hs-578T cells assessed as reduction in cell viability at 10 uM incubated for 72 hrs by SRB assay relative to control; format: functional
[5] = tested on: Hs-578T; assay: Induction of apoptosis in human Hs-578T cells assessed as increase in BID protein expression at IC50 measured after 24 to 48 hrs by Western blot analysis; format: functional, cell-based; settings: time 24-48 hrs
[6] = tested on: Hs-578T; assay: Cytotoxicity against human Hs-578T cells assessed as cell viability at 10 uM incubated for 72 hrs by SRB assay relative to control; format: functional; settings: read-out: Activity
[7] = tested on: Hs-578T; assay: Induction of apoptosis in human Hs-578T cells assessed as increase in caspase-8 protein expression at IC50 measured after 24 hrs by Western blot analysis; format: functional, cell-based
[8] = tested on: MCF7; assay: Cytotoxicity against human MCF7 cells assessed as cell viability at 30 uM incubated for 72 hrs by SRB assay relative to control; format: functional; settings: read-out: Activity
[9] = tested on: Hs-578T; assay: Induction of apoptosis in human Hs-578T cells assessed as increase in BAD protein expression at IC50 measured after 24 to 48 hrs by Western blot analysis; format: functional, cell-based; settings: time 24-48 hrs
[10] = tested on: Hs-578T; assay: Induction of apoptosis in human Hs-578T cells assessed as increase in caspase-9 protein expression at IC50 measured after 24 to 48 hrs by Western blot analysis; format: functional, cell-based; settings: time 24-48 hrs
[11] = tested on: MDA-MB-231; assay: Cytotoxicity against human MDA-MB-231 cells assessed as cell viability at 10 uM incubated for 72 hrs by SRB assay relative to control; format: functional; settings: read-out: Activity
[12] = tested on: MCF7; assay: Cytotoxicity against human MCF7 cells assessed as cell viability at 10 uM incubated for 72 hrs by SRB assay relative to control; format: functional; settings: read-out: Activity
[13] = tested on: Hs-578T; assay: Cytotoxicity against human Hs-578T cells assessed as inhibition of cell growth incubated for 72 hrs by SRB assay; format: functional, cell-based
[14] = tested on: Hs-578T; assay: Induction of apoptosis in human Hs-578T cells assessed as increase in cleaved PARP level at IC50 measured after 48 hrs by Western blot analysis; format: functional, cell-based
[15] = tested on: Hs-578T; assay: Induction of apoptosis in human Hs-578T cells assessed as increase in caspase-8 protein expression at IC50 measured after 48 hrs by Western blot analysis; format: functional, cell-based
[16] = species on record: Homo sapiens; assay: Selectivity index, ratio of IC50 for human MCF-10A cells to IC50 for human Hs-578T cells
[17] = tested on: Hs-578T; assay: Cytotoxicity against human Hs-578T cells assessed as reduction in cell proliferation at IC50 measured after 48 hrs by BrdU incorporation assay relative to control; format: functional; design: scale not given: the % may be the effect or the level left
[18] = tested on: Hs-578T; assay: Induction of cell cycle arrest in human Hs-578T cells assessed as accumulation of cells at G2/M phase at IC50 measured after 24 hrs by RNase/PI staining based flow cytometry analysis; format: functional
[19] = tested on: Hs-578T; assay: Antitumor activity against human Hs-578T cells implanted in chick eggs assessed as tumor growth regression at 2 times IC50 administered starting from day 13 and measured 17 days post embryo development by stereomicroscopic analysis; format: functional, cell-based; settings: time 5.0 day
[20] = tested on: Hs-578T; assay: Induction of apoptosis in human Hs-578T cells assessed as increase in late apoptotic cells at IC50 measured after 24 hrs by Annexin V-FITC/PI staining based flow cytometry analysis; format: functional, cell-based
[21] = tested on: Hs-578T; assay: Induction of apoptosis in human Hs-578T cells assessed as reduction in viable cells at IC50 measured after 24 to 48 hrs by Annexin V-FITC/PI staining based flow cytometry analysis; format: functional, cell-based; settings: time 24-48 hrs
[22] = tested on: Hs-578T; assay: Induction of cell cycle arrest in human Hs-578T cells assessed as reduction in G0/G1 cell population at IC50 measured after 24 to 48 hrs by RNase/PI staining based flow cytometry analysis; format: functional; settings: time 24-48 hrs
[23] = tested on: Hs-578T; assay: Induction of apoptosis in human Hs-578T cells assessed as increase in early apoptotic cells at IC50 measured after 24 to 48 hrs by Annexin V-FITC/PI staining based flow cytometry analysis; format: functional, cell-based; settings: time 24-48 hrs
[24] = Toxicity in wild type Caenorhabditis elegans N2 assessed as effect on food consumption at 0.0001 to 50 uM measured daily for 7 days by food clearance assay; settings: 168 h, dose 0.0001-50 µM, time 7 day
[25] = tested on: Hs-578T; assay: Cytotoxicity against human Hs-578T cells assessed as reduction in cell proliferation at 0.5 times IC50 measured after 24 hrs by BrdU incorporation assay relative to control; format: functional; design: scale not given: the % may be the effect or the level left
[26] = tested on: Hs-578T; assay: Induction of cell cycle arrest in human Hs-578T cells assessed as accumulation of cells at S phase at IC50 measured after 24 hrs by RNase/PI staining based flow cytometry analysis; format: functional
[27] = tested on: Hs-578T; assay: Induction of cell cycle arrest in human Hs-578T cells assessed as accumulation of cells at S phase at IC50 measured after 48 hrs by RNase/PI staining based flow cytometry analysis; format: functional
[28] = Toxicity in wild type Caenorhabditis elegans N2 assessed as drug tolerance at 0.0001 to 50 uM; settings: dose 0.0001-50 µM
[29] = tested on: Hs-578T; assay: Cytotoxicity against human Hs-578T cells assessed as reduction in cell proliferation at 0.5 times IC50 measured after 48 hrs by BrdU incorporation assay relative to control; format: functional; design: scale not given: the % may be the effect or the level left
[30] = tested on: Hs-578T; assay: Induction of apoptosis in human Hs-578T cells assessed as increase in cleaved PARP level at IC50 measured after 24 to 48 hrs by Western blot analysis; format: functional, cell-based; settings: time 24-48 hrs
[31] = tested on: Hs-578T; assay: Cytotoxicity against human Hs-578T cells assessed as reduction in cell proliferation at IC50 measured after 24 hrs by BrdU incorporation assay relative to control; format: functional; design: scale not given: the % may be the effect or the level left
[32] = tested on: Hs-578T; assay: Antitumor activity against human Hs-578T cells implanted in chick eggs assessed as regression in tumors' perimeter at 2 times IC50 administered starting from day 13 and measured 17 days post embryo development by stereomicroscopic analysis relative to control; format: functional; settings: time 5 day

Structure (SMILES) | IC50 at 72 h [1] | viability at 30 µM [2] | viability at 30 µM [3] | Activity [4] | Activity [5] | viability at 10 µM [6] | Activity [7] | viability at 30 µM [8] | Activity [9] | Activity [10] | viability at 10 µM [11] | viability at 10 µM [12] | IC50 [13] | Activity [15] | Ratio IC50 [16] | further results
COc1cccc2c1Oc1nc(-c3cc(C(C)(C)C)c(O)c(C(C)(C)C)c3)[nH]c(=O)c1C2 | > 60 µM | 58.6% | 18.7% | ~50% | Active | 30% | Active | 43.5% | Active | Active | 68.1% | 59.8% | 9.08 µM | inactive | > 5.61 | Activity [14]: Active
O=c1[nH]c(-c2ccccc2)nc2c1Cc1cc(Br)ccc1O2 | > 60 µM | 52.1% | 21.1% | ~50% | Active | 40.2% | Active | 36.7% | Active | Active | 62.4% | 39.2% | 4.5 µM | inactive | > 12.3 | Activity [17]: <=99%; Activity [18]: inactive; Activity [19]: Active; Activity [20]: Active; Activity [21]: Active; Activity [22]: Active; Activity [23]: Active; Activity [24]: Non-Toxic; Activity [25]: ~40%; Activity [26]: inactive; Activity [27]: Active; Activity [28]: Non-Toxic; Activity [29]: <=50%; Activity [30]: Active; Activity [31]: ~70%; Activity [32]: 6.3%
